Experimental data as given in patent publication US20250281497A1, “FUSED AMINO PYRIMIDINE COMPOUNDS FOR TREATMENT OF SEIZURE DISORDERS” (Ovid Therapeutics Inc., priority 2024, published 2025).

Molecular target: T1, KCC2 (Homo sapiens, UniProt Q9H2X9)
T1 construct: expressed in transfected cells; host or cells: HEK-293 (ATCC CRL-1573)
T1 sequence (Q9H2X9 1-1116 isoform Q9H2X9-2): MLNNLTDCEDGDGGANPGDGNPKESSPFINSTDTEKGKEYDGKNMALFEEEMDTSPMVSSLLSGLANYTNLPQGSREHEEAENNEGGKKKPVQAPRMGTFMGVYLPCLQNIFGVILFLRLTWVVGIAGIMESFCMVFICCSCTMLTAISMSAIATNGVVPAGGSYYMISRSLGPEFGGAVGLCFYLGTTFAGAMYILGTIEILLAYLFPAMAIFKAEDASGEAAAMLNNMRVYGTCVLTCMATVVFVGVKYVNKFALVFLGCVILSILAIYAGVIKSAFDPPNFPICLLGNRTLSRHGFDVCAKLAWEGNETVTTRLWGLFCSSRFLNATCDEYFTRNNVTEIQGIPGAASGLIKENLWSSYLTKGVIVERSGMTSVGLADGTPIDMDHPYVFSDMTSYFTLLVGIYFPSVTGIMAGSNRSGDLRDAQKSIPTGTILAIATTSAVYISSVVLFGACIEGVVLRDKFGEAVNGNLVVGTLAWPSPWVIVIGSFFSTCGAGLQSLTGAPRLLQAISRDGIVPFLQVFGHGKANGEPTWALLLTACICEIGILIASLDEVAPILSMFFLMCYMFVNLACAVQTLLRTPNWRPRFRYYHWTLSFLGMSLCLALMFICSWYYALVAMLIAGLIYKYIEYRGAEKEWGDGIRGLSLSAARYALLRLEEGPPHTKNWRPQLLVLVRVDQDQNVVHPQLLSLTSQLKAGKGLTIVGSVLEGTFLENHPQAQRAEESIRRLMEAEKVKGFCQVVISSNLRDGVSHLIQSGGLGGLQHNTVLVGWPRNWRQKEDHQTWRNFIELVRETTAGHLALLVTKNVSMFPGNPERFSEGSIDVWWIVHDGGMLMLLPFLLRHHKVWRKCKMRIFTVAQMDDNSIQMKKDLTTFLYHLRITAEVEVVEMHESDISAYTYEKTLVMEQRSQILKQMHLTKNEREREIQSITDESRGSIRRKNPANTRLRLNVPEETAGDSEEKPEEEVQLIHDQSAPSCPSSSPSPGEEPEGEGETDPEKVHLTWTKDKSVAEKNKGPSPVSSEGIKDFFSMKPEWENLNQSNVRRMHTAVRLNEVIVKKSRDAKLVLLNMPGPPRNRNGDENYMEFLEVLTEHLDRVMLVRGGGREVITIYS
Assay: Surface biotinylation of KCC2 in HEK-293 cells
Format: cell-based
Settings: 15 min
Procedure: Cell Culture and biotinylation. HEK-293 cells were purchased from ATCC (CRL-1573) and transfected with human KCC2 and GFP expression plasmids using Lipofectamine 2000. Cells were utilized for experimentation 48-72h following transfection. Cells were biotinylated at 4° C. using NHS-Biotin. Following lysis and purification on immobilized avidin beads, cell surface and total fractions were subject to immunoblotting as outlined previously (Conway et al., 2017, supra).
The reliability of the biotinylation procedure was assessed via immunoblotting with antibodies against the cytosolic protein actin. Actin was present in the total lysates but was absent from the surface fractions (FIG. 2C).

C[C@@H]1CN(c2nc3c(c(Nc4ccc(C5CCCCC5)cc4)n2)COC3)CCO1 [Compound A, (R)—N-(4-cyclohexylphenyl)-2-(2-methylmorpholino)-5,7-dihydrofuro[3,4-d]pyrimidin-4-amine]
KCC2 on the plasma membrane (surface/total) (0.3 μM): 94.5±8.4 % of control | KCC2 on the plasma membrane (surface/total) (3 μM): 104.7±8.4 % of control
